In paper PMC8341910, “Structural and biophysical insights into the mode of covalent binding of rationally designed potent BMX inhibitors” (RSC Chemical Biology, 2020):
In brackets after ≈: the same amount, converted by molar mass. Several values for one entry are separate records, joined by “and”; a condition that tells them apart may be missing. Equal entries are not always repeated. Where two headings read alike, the source gives them in different places.

Tests used:
CAOV3 = assay: Multi cell line growth assay (CellTiter-Glo, 72 h); assay type: cell-based, human; settings: Ovary, ND = no growth inhibition observed
22 RV1 = assay: Multi cell line growth assay (CellTiter-Glo, 72 h); assay type: cell-based, human; settings: Prostate, ND = no growth inhibition observed
LNCaP = assay: Multi cell line growth assay (CellTiter-Glo, 72 h); assay type: cell-based, human; settings: Prostate, ND = no growth inhibition observed within the concentrations tested
Kasumi = assay: Multi cell line growth assay (CellTiter-Glo, 72 h); assay type: cell-based, human; settings: Blood, ND = no growth inhibition observed
SK-N-MC = assay: Multi cell line growth assay (CellTiter-Glo, 72 h); assay type: cell-based, human; settings: Brain, ND = no growth inhibition observed
[1] = Dynamic light scattering, colloidal aggregation; assay type: physicochemical; settings: measured at 10 µM, 1 µM and 100 nM, 25 °C, read-out: DLS maximum soluble concentration at which no aggregates are observed
Description: In addition, we measured particle sizes by using dynamic light scattering (DLS).
DLS is measured at 10 µM, 1µM and 100 nM. The maximum soluble
concentration – at which no aggregates are observed - is indicated and the colour code indicates
Dynamic Light Scattering:
Dynamic light scattering (Zetasizer Nano S, Malvern, UK) was used to determine compound colloidal aggregation. […] A 10 mM stock solution of
test compounds was prepared in DMSO, following dilution to deionized and filtered water to
obtain an analyte solution of 10 μM (0.1% DMSO). Colloidal aggregation was measured
through sequential dilutions at 10 μM, 1 μM and 0.1 μM.

[2] = pH 6.8
Description: (§1) For assessment of drug permeability, we relied on parallel artificial membrane permeability assay (PAMPA) performed at Pion Inc. with the PAMPA Evolution™ instrument (Table S1, ESI ^†).
(§2) methods (ESOL model1 and Ali et al.2) PAMPA: Pe is effective permeability (x10-6 cm/sec)
(§3) measured directly from assay at pH 6.8 and %R is membrane retention.
(§4) as the average of quadruplicates. Und label refers to compounds with extremely low solubility
(§5) for which UV limits were below the detection limits therefore considered undetected.
(§6) Compounds were labelled as high permeability (green), medium permeability (orange) or low
(§7) Artificial Membrane Permeability (PAMPA):
(§8) The PAMPA Evolution™ instrument was used to determine permeability, at Pion Inc. In
(§9) PAMPA, a sandwich is formed such that each composite well is divided into two chambers,
(§10) measured at pH 6.8 in the donor compartment using low-binding, low UV Prisma buffer. The
(§11) drug-free acceptor compartment was filled with acceptor sink buffer containing a scavenger at
(§12) the start of the test. The proprietary scavenger mimics serum proteins and blood circulation,
(§13) thus creating sink conditions. Aqueous solutions of studied compounds are prepared by diluting
(§14) and thoroughly mixing 3 µL of DMSO stock in 600 µL of Prisma HT buffer. Final
(§15) concentration of organic solvent (DMSO) in aqueous buffer is ≤ 0.5% (v/v). The reference
(§16) solution is identical to the donor at time zero, so that any surface adsorption effects from the
(§17) plastic ware is compensated. The PAMPA sandwich was assembled and allowed to incubate
(§18) for ~15 hours. The solutions in the donor compartment were un-stirred within duration of the
(§19) experiment. Thus, the thickness of the aqueous boundary layer expected to be about 1000 µm.
(§20) The sandwich was then separated, and both the donor and receiver compartments were assayed
(§21) for the amount of drug present by comparison with the UV spectrum obtained from reference

DAUDI = assay: Multi cell line growth assay (CellTiter-Glo, 72 h); assay type: cell-based, human; settings: Lymphoid, ND = no growth inhibition observed
RS4(11) = assay: Multi cell line growth assay (CellTiter-Glo, 72 h); assay type: cell-based, human; settings: Lung (so in the source), ND = no growth inhibition observed
BMX [3] = biological target: T1, BMX (Homo sapiens, UniProt P51813); assay: BMX biochemical activity assay (HTRF, phosphorylation of a biotinylated peptide); settings: for LE (BMX): ligand efficiency; for LipE (BMX): lipophilic efficiency
T1 sequence (P51813 1-675): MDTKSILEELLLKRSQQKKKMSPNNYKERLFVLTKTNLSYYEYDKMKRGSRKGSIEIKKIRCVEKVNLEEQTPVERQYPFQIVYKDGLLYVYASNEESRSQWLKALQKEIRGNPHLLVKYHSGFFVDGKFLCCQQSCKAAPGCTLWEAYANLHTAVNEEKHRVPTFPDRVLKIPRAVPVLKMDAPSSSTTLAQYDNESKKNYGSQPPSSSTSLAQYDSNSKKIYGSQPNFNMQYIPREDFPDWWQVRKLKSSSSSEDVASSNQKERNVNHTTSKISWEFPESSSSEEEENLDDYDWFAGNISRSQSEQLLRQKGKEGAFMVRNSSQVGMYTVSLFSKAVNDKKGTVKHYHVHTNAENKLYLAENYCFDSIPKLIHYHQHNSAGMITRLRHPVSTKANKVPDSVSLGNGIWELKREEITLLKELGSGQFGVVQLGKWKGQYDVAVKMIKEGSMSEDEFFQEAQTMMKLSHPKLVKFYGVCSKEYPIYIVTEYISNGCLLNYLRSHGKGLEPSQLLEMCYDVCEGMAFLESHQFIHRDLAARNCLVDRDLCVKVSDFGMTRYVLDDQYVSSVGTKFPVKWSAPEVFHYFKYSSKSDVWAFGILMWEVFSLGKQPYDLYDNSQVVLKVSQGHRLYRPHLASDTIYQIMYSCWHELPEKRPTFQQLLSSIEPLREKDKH

Jurkat = assay: Multi cell line growth assay (CellTiter-Glo, 72 h); assay type: cell-based, human; settings: Blood, ND = no growth inhibition observed
H1299 = assay: Multi cell line growth assay (CellTiter-Glo, 72 h); assay type: cell-based, human; settings: Bone marrow (so in the source), ND = no growth inhibition observed
[4] = biological target: T2, recombinant human BMX protein (hBMX) (Homo sapiens, UniProt P51813); assay: Differential scanning fluorimetry (DSF); assay type: binding; settings: 100 μM compound; for Average Tm of BMX with compound: apo-BMX Tm 51.8-52.2 °C; for ΔTm at 100 µM: read-out: ΔTm
T2 construct: Crystallization, data collection, and structure determination of BMX catalytic domain in; made in house; host or cells: Sf-9 insect cells
Description: We further characterized the binding interaction between JS24–JS27 and BMX by using differential scanning fluorimetry (DSF) and surface plasmon resonance (SPR). Purified recombinant human BMX protein (hBMX) was first subjected to thermal scanning in the absence and presence of JS24–JS27, and the respective protein melting temperature (Tm) calculated.
Differential Scanning Fluorimetry:
DSF was performed in MicroAmp™ EnduraPlate™ Optical 96 -Well Clear Reaction Plates
with Barcode (Applied Biosystems, Life Technologies, California, USA) using a QuantStudio
7 Flex Real-Time PCR System (Applied Biosystems). Pre-incubation of the protein with the
compound for 2 hours at 4 °C was required prior to DSF experiments. The final reaction mixture
(20 μL of total volume) contained 4 μg of His6-BMX, 4-fold of Protein Thermal Shift™ Dye
(Applied Biosystems) diluted in protein buffer solution, and 100 μM of compound. The
temperatures were obtained by taking the midpoint of each transition.

PC3 = assay: Multi cell line growth assay (CellTiter-Glo, 72 h); assay type: cell-based, human; settings: Prostate, ND = no growth inhibition observed
in vitro = settings: PAMPA
Description: as §1, §2, §3, §4, §5, §6, §7, §8, §9, §10, §11, §12, §13, §14, §15, §16, §17, §18, §19, §20, §21

LNCaP cells [5] = assay: LNCaP cell growth assay (CellTiter-Glo, 96 h); assay type: cell-based; settings: Homo sapiens, 96-well plates, mean of three experiments in triplicate, read-out: GI50 LNCaP
Description: (§22) GI50 values are reported in μM and are the mean of three individual experiments performed in triplicate. N.d., non-determined, no growth inhibition observed within the concentrations tested.
(§23) Cellular activity Assay: LNCaP and PC-3 Cell Growth Assay
(§24) Cells were seeded in white, opaque-bottom 96-well plates at 5000 cells/well (LNCaP) or 2000 cells/well (PC-3) in a total volume of 100 µL of culture media.
(§25) fold) in 100 µL media were added to the cells 24 hours later. After 96 hours incubation cellular viability was assessed by CellTiter-Glo® (Promega) according to the manufacturer’s instructions. The values were normalized to vehicle and IC50 was calculated using GraphPad

BMX [6] = biological target: T1, BMX; assay: Kinetic characterization with ADP-Glo kinase assay; assay type: biochemical; parameters: purchased Promega Corporation (USA) V4512; settings: duplicate, mean ± S.D.
Description: The inactivation of BMX occurs in a two-step process that is governed by two parameters: the affinity of the initial non-covalent binding, KI, and the rate of the subsequent covalent bond-forming reaction with the thiol of the cysteine residue, kinact. […]. […] Thus, taking into account that all the analogues have the same Michael acceptor moiety, the enhanced activity must be a result of the structural modifications introduced in the scaffold. […]
Kinetic characterization using an ADP-GLOTM kinase assay:
The BMX enzyme system (Catalog. V4512) and the ADP-GloTM kinase assay were purchased from Promega Corporation (USA). In each kinase reaction, the concentration of BMX was set to 4.5 ng/µL. The peptide substrate Poly (4:1 Glu, Tyr) and ATP concentrations were set to 0.25 mg/mL and 50 µM, respectively. BMX was pre-incubated with different inhibitor concentrations (10-fold serial dilutions, starting at 1 mM), over different time periods (2 - 60 min), before initiating the kinase reactions. Reactions were started by adding 2.5X Poly E4Y1/ATP mixture. The reactions were carried out in a 384-well plate, stopping all at the same time with the addition of 5 µL of ADP-GloTM reagent, to consume the remaining ATP within 40 min. Then, 10 µL of kinase detection reagent was added into the wells and incubated for 30 min to produce a luminescence signal. The signal was measured using an Infinite M200 […]
observed rate constants for inhibition (kobs), at different inhibitor concentrations, were determined from the slope of a semi-logarithmic plot of inhibition versus time, and re-plotted against inhibitor concentration (nM). The experimental values were fitted into a hyperbolic function using GraphPad Prism 8 ([…]), to obtain the KI, kinact, and kinact/KI, as described previously.12 […]
(Thermo Fisher Scientific) using gold-coated glass needles. […]

LNCaP cells [7] = assay: Anti-proliferative co-treatment assays in LNCaP; assay type: cell-based; settings: JS24 3 μM, JS25 5 μM, JS26 6 μM, 5 days
His6-hsBMX = biological target: T3, His6-hsBMX (Homo sapiens, UniProt P51813); assay: Surface plasmon resonance (SPR); assay type: binding; settings: 1:1 Langmuir fit, 25 °C
T3 construct: Crystallization, data collection, and structure determination of BMX catalytic domain in; made in house; host or cells: Sf-9 insect cells
Description: response upon compound injection (t=0s), or upon washing (t=220s), on immobilized His6-
hsBMX surfaces. Compound concentrations injected on already saturated surfaces were not
included in the 1:1 Langmuir fitting model. X-axis: time (s); y-axis: response (arbitrary units).
Inset plots [x-axis: compound concentration (M); y-axis: response (arbitrary units)] show the
steady-state affinity (KDss) fit for the interactions wherein equilibrium was reached.
Surface Plasmon Resonance:
The kinetic and affinity parameters of protein-compound interaction were evaluated by SPR.
Experiments were carried out in a Biacore 4000 instrument (Biacore AB, GE Healthcare Life
Sciences, Uppsala, Sweden) at 25 °C. His6-BMX protein was diluted to 10 µg/mL in sodium
acetate pH 5.5, in the presence of 5 µM staurosporine and immobilized onto CM5 (Series S)
sensor chips, using the standard amine coupling procedure. Prior to immobilization, the
carboxymethylated surface of the chip was activated with 400 mM 1-ethyl-3-(3-
dimethylaminopropyl)-carbodiimide and 100 mM N-hydroxysuccinimide for 10 min. HBS-N
(10 mM HEPES pH7.4, 150mM NaCl) was used as the background buffer. Protein was coupled
to the surface after 2 to 10 min injection times, at a flow rate of 10 µL/min, in order to reach
1500 to 3500 response units (RU). The remaining activated carboxymethylated groups were
blocked with a 7 min injection of 1 M ethanolamine pH 8.5. Compounds were pre-diluted in
DMSO to 50x the desired highest tested concentration and diluted afterwards in running buffer
(20 mM HEPES pH 7.4, 150 mM NaCl, 1 mM DTT, 0.1 mM EGTA, 0.05 % (v/v) TWEEN-
20, 5 mM MgCl2) in order to reach 2% of DMSO concentration. A DMSO solvent correction
(1% - 3%) was performed to account for variations in bulk signal and to achieve high-quality
data. Each compound was injected over immobilized His6-BMX for 220 s (30 µL min-1;
association phase) followed by 600 to 2000 s of buffer flow (dissociation phase) at a maximum
five times in 2-fold dilution series. All sensorgrams were processed by first subtracting the
binding response recorded from the control surface (reference spot), followed by subtracting
the buffer blank injection from the reaction spot. All datasets were fit to a simple 1:1 Langmuir
interaction model with the provided Biacore 4000 Evaluation software, to determine kinetic rate constants (kon, koff) or steady-state affinity (KDss).

PC3 cells = assay: PC-3 cell growth assay (CellTiter-Glo, 96 h); assay type: cell-based; settings: Homo sapiens, PC-3; 96 h, 96-well plates; N.d. = no growth inhibition observed within the concentrations tested; read-out: GI50 PC3
Description: as §22, §23, §24, §25

BTK = BTK (Homo sapiens, UniProt Q06187); assay: BTK biochemical activity assay (radiometric, KinaseProfiler); parameters: purchased Eurofins DiscoverX KinaseProfiler (contract assay)
BTK, sequence (Q06187 whole entry, species assumed): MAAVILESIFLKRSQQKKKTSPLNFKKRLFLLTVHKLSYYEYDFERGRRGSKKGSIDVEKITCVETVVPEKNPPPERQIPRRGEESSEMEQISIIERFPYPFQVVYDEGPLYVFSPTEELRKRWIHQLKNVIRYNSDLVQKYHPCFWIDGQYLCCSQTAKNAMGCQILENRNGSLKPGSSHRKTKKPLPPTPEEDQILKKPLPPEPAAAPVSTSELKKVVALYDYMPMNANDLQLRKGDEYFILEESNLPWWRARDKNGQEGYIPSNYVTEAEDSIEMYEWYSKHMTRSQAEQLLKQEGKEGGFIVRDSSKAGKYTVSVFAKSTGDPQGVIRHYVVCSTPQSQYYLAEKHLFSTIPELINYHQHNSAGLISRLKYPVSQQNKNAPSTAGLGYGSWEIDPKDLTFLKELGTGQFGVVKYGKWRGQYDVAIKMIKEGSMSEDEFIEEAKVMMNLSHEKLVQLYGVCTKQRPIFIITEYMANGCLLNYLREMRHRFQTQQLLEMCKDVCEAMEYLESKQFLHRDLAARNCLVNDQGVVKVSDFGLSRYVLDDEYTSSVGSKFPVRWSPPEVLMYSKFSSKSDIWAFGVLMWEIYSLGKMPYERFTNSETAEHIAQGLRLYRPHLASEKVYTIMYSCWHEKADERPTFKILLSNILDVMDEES

[8] = relative to the control of the same set of experiments
[9] = pH 6.8, PAMPA/Pe effective permeability
[10] = deionized and filtered water (0.1% DMSO), kinetic from dmso stock
[11] = Experiment 4 of Fig. S3 = Fig. 1b, duplicate, mean ± S.D., read-out: BMX inhibition IC50

| Average Tm of BMX with compound [4] [°C] | Papp (in vitro; pH 6.8, PAMPA permeability) [×10⁻⁶ cm/s] | Papp (in vitro; [9]) [×10⁻⁶ cm/s] | GI50 (LNCaP cells [5]) [µM] | k inact (BMX [6]) | ΔTm at 100 µM ([4]; versus apo-BMX) [°C] | solubility [1, 10] [µM] | IC50 (BMX [3]; [11]) [µM] | LE (BMX) (BMX [3]) | SMILES | GI50 (CAOV3) [µM] | GI50 (22 RV1) [µM] | GI50 (LNCaP) [µM] | GI50 (Kasumi) [µM] | GI50 (SK-N-MC) [µM] | solubility ([1]; water) [µM] | PAMPA/%R membrane retention [2] [%] | PAMPA/Pe effective permeability [2] | GI50 (DAUDI) [µM] | GI50 (RS4(11)) [µM] | GI50 (Jurkat) [µM] | also measured |
| --- | --- | --- | --- | --- | --- | --- | --- | --- | --- | --- | --- | --- | --- | --- | --- | --- | --- | --- | --- | --- | --- |
|  |  |  |  |  |  |  |  |  | CC=CC(=O)Nc1cc(-n2c(=O)ccc3cnc4ccc(-c5ccc(NS(C)(=O)=O)cc5)cc4c32)ccc1C [JS10] | 17.3 | 4.86 ± 0.11 | 9.7 | 4.37 ± 0.04 | 11.2 | 0.1 (≈ 0.0539 µg/mL) | 33±4 | 28±4 x10-6 cm/sec | 2.57 ± 0.09 | 5.06 | 9.71 ± 1.48 | IC50 (BMX [3]; Experiment 1 of Fig. S3, control JS9A (in-house BMX-IN-1), read-out: BMX IC50): 21 ± 7.25 µM; BMX potency loss (fold) against control BMX-IN-1 (BMX [3]; [8]): 58 fold; GI50 (H1299): 19.4 µM |
| 61.47±0.21 | 19 | 19 ± 13 | 7.7 | 0.443 min⁻¹ and 0.443 ± 0.003 min⁻¹ | 9.34 ± 0.21 | ≥ 10 | 0.0091 | 0.30 | C=CC(=O)Nc1cccc(-n2c(=O)ccc3cnc4cc(-c5ccc(NS(C)(=O)=O)cc5)ccc4c32)c1 [JS26] |  |  |  |  |  |  | 8±14 |  |  |  |  | decrease in cell viability (LNCaP cells [7]; co-treatment with AKT1/2 (1 μM), relative to control AKT1/2): 63%; decrease in cell viability (LNCaP cells [7]; co-treatment with LY294002 (3 μM)): 35%; LipE (BMX) (BMX [3]): 4.45; koff (His6-hsBMX): < 0.0001 s⁻¹; kon (His6-hsBMX): 72000 M⁻¹ s⁻¹; GI50 (PC3 cells): 10.1 ± 1.3 µM |
| 62.94±0.06 | 12 | 12 ± 2 | 9.3 | 0.166 min⁻¹ and 0.166 ± 0.003 min⁻¹ | 10.81 ± 0.06 | ≥ 10 | 0.0137 | 0.30 | C=CC(=O)Nc1cccc(-n2c(=O)ccc3cnc4cc(N5CCN(S(C)(=O)=O)CC5)ccc4c32)c1 [JS27] |  |  |  |  |  |  | 42±14 |  |  |  |  | BTK potency gain (fold) relative to BMX-IN-1 (BTK): 15 fold; IC50 (BTK; duplicate, mean ± S.D., read-out: BTK inhibition IC50): 0.0243 ± 0.0003 µM; LE (BTK) (BTK; ligand efficiency): 0.29; LipE (BTK) (BTK; lipophilic efficiency): 5.29; LipE (BMX) (BMX [3]): 5.54; BMX potency gain (fold) against BMX-IN-1 (BMX [3]; [8]): ≈ 4 fold; koff (His6-hsBMX): < 0.0001 s⁻¹; kon (His6-hsBMX): 99000 M⁻¹ s⁻¹ |

| SMILES | Average Tm of BMX with compound [4] [°C] | Papp (in vitro; pH 6.8, PAMPA permeability) [×10⁻⁶ cm/s] | Papp (in vitro; [9]) [×10⁻⁶ cm/s] | GI50 (LNCaP cells [5]) [µM] | k inact (BMX [6]) | ΔTm at 100 µM ([4]; versus apo-BMX) [°C] | solubility [1, 10] [µM] | IC50 (BMX [3]; [11]) [µM] | LE (BMX) (BMX [3]) | GI50 (CAOV3) [µM] | GI50 (22 RV1) [µM] | GI50 (LNCaP) [µM] | GI50 (Kasumi) [µM] | GI50 (SK-N-MC) [µM] | solubility ([1]; water) [µM] | PAMPA/%R membrane retention [2] [%] | PAMPA/Pe effective permeability [2] | GI50 (DAUDI) [µM] | GI50 (RS4(11)) [µM] | GI50 (Jurkat) [µM] | also measured |
| --- | --- | --- | --- | --- | --- | --- | --- | --- | --- | --- | --- | --- | --- | --- | --- | --- | --- | --- | --- | --- | --- |
| CC(C)=CC(=O)Nc1cc(-n2c(=O)ccc3cnc4ccc(-c5ccc(NS(C)(=O)=O)cc5)cc4c32)ccc1C [JS11] | 52.26±0.11 |  |  |  |  |  |  |  |  | 19.3 | 7.3 | 10.4 | 10.14 ± 0.07 | 8.24 | 0.1 (≈ 0.0553 µg/mL) | 54±9 | 31±4 x10-6 cm/sec | 4.57 ± 0.12 | 6.66 | 6.36 ± 0.17 | ΔTm ([4]; versus apo-BMX): 0.34±0.11 °C; GI50 (PC3): 20.1 µM |
